{"source": "patent US11691990B2", "about": "“Salts of compounds and crystals thereof” (Eisai R&D Management Co., Ltd., priority 2018, dated 2023)", "key": {"[1]": {"test_system": "CT26 tumor cells", "experiment": "CT26 dual tumor model (mouse colon cancer model)", "assay_type": "in vivo", "settings": "I.T. single dose, study B", "method": "For study A, treatment was started 5 days (1.25 mg/kg, 2.5 mg/kg and 5 mg/kg) after the tumor implantation, when the average tumors reached approximately 100 mm^3. For study B, treatment was started 8 days (0.6 mg/kg, and 10 mg/kg) after the tumor implantation, when the average tumors reached approximately 120 mm^3. The treatment scheme is described in Table 5 and Table 6.\nAll the mice in the study have two subcutaneous CT26 tumors. The “treated tumor” indicates the tumor with compound direct administration, while “untreated tumor” indicates the tumor without direct compound administration. Tumor volume was followed throughout the experiment. Tumor volume is measured two times weekly after the start of treatment. Tumor burden is calculated from caliper measurements by the formula for the volume of a prolate ellipsoid (L×W^2)/2 where L and W are the respective orthogonal length and width measurements (mm)."}, "[2]": {"test_system": "primary human PBMC", "experiment": "Ex vivo human PBMC stimulation assay, IFNβ protein", "assay_type": "cell-based", "settings": "24 hours, average of five donors", "method": "Human blood from 5 healthy donors was collected using 10.0 mL BD Vacutainer Sodium heparin tubes (cat #367874). Peripheral blood mononuclear cell (PBMC) isolation was done using SIGMA ACCUSPIN 50 ml Tubes (cat #A2055) and sigma ACCUSPIN System-HISTOPAQUE-1077 (cat #A7054) using protocol provided by manufacturer. […] PBMC were counted and finally suspended at 1×10e6/ml in RPMI (corning cat #10-041-CV) supplemented with 10% fetal bovine serum (FBS) (Gibco cat #20140.79). 1 ml of cell (1×10e6) were transferred into Falcon 5 mL Round Bottom Polypropylene Test Tube (cat #352063) and stimulated with different concentrations ([…]) for 24 hours in 5% CO2 incubator at 37° C. After 24 hours of incubation the tubes were centrifuged at 1400 rpm for 5 minutes and supernatants were harvested. Supernatant were stored in −80° C. for subsequent IFN measurement. IFNβ measurement was done using Human IFN-β Base Kit (Meso Scale Diagnostics cat #K151ADA) and protocol provided by manufacturer was used. IFN-beta estimation was done by reading assay plate at MESO SECTOR Imager 2400 and using MSD Discovery Workbench 4.0 program. After 24 hours IFNβ protein was analyzed. […] Results shown in Table 3 reflect an average of measurements conducted using five different donors."}}, "data": [{"compound": "O=[P@]1(S)OC[C@H]2O[C@@H]3[C@H](F)[C@@H]2O[P@](=O)(S)OC[C@H]2O[C@H]([C@H](F)[C@@H]2O1)n1cnc2c(ncnc21)NC/C=C/CNc1ncnc2c1ncn23", "note": "[Compound (1a), (1R,3R,15E,28R,29R,30R,31R,34R,36R,39S,41R)-29,41-Difluoro-34,39-bis(sulfanyl)-2,33,35,38,40,42-hexaoxa-4,6,9,11,13,18,20,22,25,27-decaaza-34λ^5,39λ^5-diphosphaoctacyclo[28.6.4.1^3,36.1^28,31.0^4,8.0^7,12.0^19,24.0^23,27]dotetraconta-5,7,9,11,15,19,21,23,25-nonaene-34,39-dione]", "values": [{"measurement": "cure rate, treated tumors", "setting": "[1]; 0.6 mg/kg", "value": 20, "unit": "%"}, {"measurement": "animals cured of treated tumor at the end of study", "setting": "[1]; 10 mg/kg", "value": 100, "unit": "%"}, {"measurement": "curative effects, untreated tumors", "setting": "[1]; 10 mg/kg", "value": 80, "unit": "%"}, {"measurement": "IFNβ", "setting": "[2]; 0.1 μM", "value": "21.3 ± 17.8", "unit": "pg/mL"}, {"measurement": "IFNβ", "setting": "[2]; 1 μM", "value": "227.5 ± 62.4", "unit": "pg/mL"}, {"measurement": "IFNβ", "setting": "[2]; 10 μM", "value": "540.2 ± 215.0", "unit": "pg/mL"}]}]}
